Data: PubChem BioAssay (NCI)
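How tested: cells in 96-well plates exposed to compound for 48 hours at five concentrations. Here, GI50 denotes the concentration required for 50% inhibition of growth. TGI: concentration producing complete growth inhibition.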

How the values were obtained:
Test in all cases: NCI anticancer screen, dose series, 48 h
NCI-H226 lung = test system: NCI-H226 lung
SK-MEL-2 melanoma = test system: SK-MEL-2 melanoma
A498 renal = test system: A498 renal
UO-31 renal = test system: UO-31 renal
HL-60(TB) leukemia = test system: HL-60(TB) leukemia
U251 CNS = test system: U251 CNS
TK-10 renal = test system: TK-10 renal
HOP-62 NSCLC = test system: HOP-62 NSCLC
HCC-2998 colon = test system: HCC-2998 colon
COLO 205 colon = test system: COLO 205 colon
MDA-MB-231 breast = test system: MDA-MB-231 breast
ACHN renal = test system: ACHN renal
OVCAR-4 ovarian = test system: OVCAR-4 ovarian
OVCAR-3 ovarian = test system: OVCAR-3 ovarian
HCT-116 colon = test system: HCT-116 colon
UACC-257 melanoma = test system: UACC-257 melanoma
IGROV1 ovarian = test system: IGROV1 ovarian
SK-OV-3 ovarian = test system: SK-OV-3 ovarian
DU-145 prostate = test system: DU-145 prostate
T-47D breast = test system: T-47D breast
HCT-15 colon = test system: HCT-15 colon
NCI-H522 lung = test system: NCI-H522 lung
K-562 leukemia = test system: K-562 leukemia
HT29 colon = test system: HT29 colon
BT-549 breast = test system: BT-549 breast
NCI-H460 lung = test system: NCI-H460 lung
SF-295 CNS = test system: SF-295 CNS
OVCAR-5 ovarian = test system: OVCAR-5 ovarian
HS 578T breast = test system: HS 578T breast
A549 NSCLC = test system: A549 NSCLC
MOLT-4 leukemia = test system: MOLT-4 leukemia
MALME-3M melanoma = test system: MALME-3M melanoma
SN12C renal = test system: SN12C renal
M14 melanoma = test system: M14 melanoma
786-0 renal = test system: 786-0 renal
MCF7 breast = test system: MCF7 breast
SW-620 colon = test system: SW-620 colon
RPMI-8226 leukemia = test system: RPMI-8226 leukemia
CAKI-1 renal = test system: CAKI-1 renal
SK-MEL-28 melanoma = test system: SK-MEL-28 melanoma
SNB-19 CNS = test system: SNB-19 CNS
KM12 colon = test system: KM12 colon
RXF 393 renal = test system: RXF 393 renal
LOX IMVI melanoma = test system: LOX IMVI melanoma
SR leukemia = test system: SR leukemia
OVCAR-8 ovarian = test system: OVCAR-8 ovarian
EKVX NSCLC = test system: EKVX NSCLC
UACC-62 melanoma = test system: UACC-62 melanoma
MDA-MB-435 = test system: MDA-MB-435
SF-539 CNS = test system: SF-539 CNS
NCI/ADR-RES ovarian = test system: NCI/ADR-RES ovarian
SK-MEL-5 melanoma = test system: SK-MEL-5 melanoma
CCRF-CEM leukemia = test system: CCRF-CEM leukemia
HOP-92 NSCLC = test system: HOP-92 NSCLC
SF-268 CNS = test system: SF-268 CNS
SNB-75 CNS = test system: SNB-75 CNS
PC-3 prostate = test system: PC-3 prostate

## CN(C)CCCNc1c2ccccc2nc2c1oc1ccc(Cl)cc12
NCI-H226 lung
  GI50: 4.18 µM
  TGI: 18.2 µM
SK-MEL-2 melanoma
  GI50: 4.2 µM
  TGI: 16.4 µM
A498 renal
  GI50: 9.15 µM
  TGI: 22.9 µM
UO-31 renal
  GI50: 3.15 µM
  TGI: 15.1 µM
HL-60(TB) leukemia
  GI50: 2.71 µM
  TGI: 10.1 µM
U251 CNS
  GI50: 3.69 µM
  TGI: 16.4 µM
TK-10 renal
  GI50: 7.35 µM
  TGI: 20.1 µM
HOP-62 NSCLC
  GI50: 4.08 µM
  TGI: 17 µM
HCC-2998 colon
  GI50: 1.43 µM
  TGI: 3.73 µM
COLO 205 colon
  GI50: 1.94 µM
  TGI: 9.57 µM
MDA-MB-231 breast
  GI50: 2 µM
  TGI: 5.69 µM
ACHN renal
  GI50: 1.76 µM
  TGI: 15.6 µM
OVCAR-4 ovarian
  GI50: 2.83 µM
  TGI: 14 µM
OVCAR-3 ovarian
  GI50: 6.44 µM
  TGI: 20.2 µM
HCT-116 colon
  GI50: 0.949 µM
  TGI: 2.32 µM
UACC-257 melanoma
  GI50: 4.65 µM
  TGI: 17.2 µM
IGROV1 ovarian
  GI50: 3.68 µM
  TGI: 16.2 µM
SK-OV-3 ovarian
  GI50: 4.53 µM
  TGI: 17.3 µM
DU-145 prostate
  GI50: 4.1 µM
  TGI: 16.6 µM
T-47D breast
  GI50: 6.18 µM
  TGI: 19.9 µM
HCT-15 colon
  GI50: 1.45 µM
  TGI: 6.5 µM
NCI-H522 lung
  GI50: 3.73 µM
  TGI: 16.6 µM
K-562 leukemia
  GI50: 1.25 µM
  TGI: 11.3 µM
HT29 colon
  GI50: 1.03 µM
  TGI: 2.94 µM
BT-549 breast
  GI50: 3.76 µM
  TGI: 14.3 µM
NCI-H460 lung
  GI50: 1.05 µM
  TGI: 4.79 µM
SF-295 CNS
  GI50: 4.6 µM
  TGI: 17.3 µM
OVCAR-5 ovarian
  GI50: 5.24 µM
  TGI: 18.8 µM
HS 578T breast
  GI50: 4.65 µM
  TGI: 21.3 µM
A549 NSCLC
  GI50: 3.43 µM
  TGI: 15.3 µM
MOLT-4 leukemia
  GI50: 0.521 µM
  TGI: 18.9 µM
MALME-3M melanoma
  GI50: 4.5 µM
  TGI: 17.1 µM
SN12C renal
  GI50: 2.58 µM
  TGI: 13.1 µM
M14 melanoma
  GI50: 1.75 µM
  TGI: 4.2 µM
786-0 renal
  GI50: 3.22 µM
  TGI: 14.4 µM
MCF7 breast
  GI50: 1.23 µM
  TGI: 4.59 µM
SW-620 colon
  GI50: 0.777 µM
  TGI: 8.63 µM
RPMI-8226 leukemia
  GI50: 2.66 µM
CAKI-1 renal
  GI50: 2.32 µM
  TGI: 13.3 µM
SK-MEL-28 melanoma
  GI50: 4.48 µM
  TGI: 16.2 µM
SNB-19 CNS
  GI50: 4.95 µM
  TGI: 18.4 µM
KM12 colon
  GI50: 2.75 µM
  TGI: 14.9 µM
RXF 393 renal
  GI50: 1.95 µM
  TGI: 6.74 µM
LOX IMVI melanoma
  GI50: 1.64 µM
  TGI: 3.33 µM
SR leukemia
  GI50: 2.19 µM
  TGI: 10.1 µM
OVCAR-8 ovarian
  GI50: 3.75 µM
  TGI: 20.2 µM
EKVX NSCLC
  GI50: 5.22 µM
  TGI: 18.6 µM
UACC-62 melanoma
  GI50: 10.9 µM
  TGI: 24.5 µM
MDA-MB-435
  GI50: 3.91 µM
  TGI: 16.1 µM
SF-539 CNS
  GI50: 3.31 µM
  TGI: 12.7 µM
NCI/ADR-RES ovarian
  GI50: 1.52 µM
  TGI: 10.8 µM
SK-MEL-5 melanoma
  GI50: 12.5 µM
  TGI: 25 µM
CCRF-CEM leukemia
  GI50: 2.21 µM
  TGI: 12.6 µM
HOP-92 NSCLC
  GI50: 1.37 µM
  TGI: 6.59 µM
SF-268 CNS
  GI50: 3.06 µM
  TGI: 16.5 µM
SNB-75 CNS
  GI50: 3.67 µM
  TGI: 17.4 µM
PC-3 prostate
  GI50: 3.92 µM
  TGI: 15.8 µM
